Where a name gives a salt, the structure may show the parent alone.
Legend:
[1] = target: T1, Thromboxane A2 Synthetase (Oryctolagus cuniculus, UniProt G1TAZ9); assay: Inhibition of Thromboxane A2 Synthetase, rabbit platelet microsomes; type: biochemical; details: 1-[14C] arachidonic acid 0.1 mM, 1 minute at 22° C., read-out: IC50, concentration required to inhibit the activity of thromboxane synthetase by 50%
T1 construct: The platelet microsome fraction was separated from rabbit and from human blood; from tissue; host or cells: rabbit blood platelets, microsome fraction
T1 sequence (G1TAZ9 1-530): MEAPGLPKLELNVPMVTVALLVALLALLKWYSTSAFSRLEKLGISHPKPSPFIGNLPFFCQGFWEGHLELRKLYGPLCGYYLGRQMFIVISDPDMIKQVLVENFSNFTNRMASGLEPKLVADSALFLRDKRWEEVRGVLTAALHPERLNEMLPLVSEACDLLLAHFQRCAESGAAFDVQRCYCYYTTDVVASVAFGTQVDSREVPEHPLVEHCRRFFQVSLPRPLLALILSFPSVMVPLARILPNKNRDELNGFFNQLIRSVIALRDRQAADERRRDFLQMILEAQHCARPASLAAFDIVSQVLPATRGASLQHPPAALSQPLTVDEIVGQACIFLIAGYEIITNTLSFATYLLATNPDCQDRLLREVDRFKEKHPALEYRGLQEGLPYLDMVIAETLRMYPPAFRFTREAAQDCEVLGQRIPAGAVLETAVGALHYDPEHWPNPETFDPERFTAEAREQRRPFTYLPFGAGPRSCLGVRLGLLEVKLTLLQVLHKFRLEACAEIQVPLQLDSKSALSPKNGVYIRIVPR
Procedure: (§1) The platelet microsome fraction was separated from rabbit and from human blood by the method of Needleman et al. [Needleman et al., Science, 193, 163 (1976)]. The microsomal TXA2 synthetase activity in the presence of various of the compounds of the invention at various concentrations was assayed by a modification of the method of […] et al. [[…] et al., Prostaglandins, 21, 543 (1981)] by incubating the microsome fractions with labelled 1-[^14 C] arachidonic acid at a concentration of 0.1 mM for 1 minute at 22° C., to a final volume of 0.2 ml. The reaction was terminated by the addition of […] of 0.2M citric acid, and then the mixture was extracted with 1.5 ml of ethyl acetate. […] The developing solvent for the chromatography was a 90:8:1:0.8 by volume mixture of chloroform, methanol, acetic acid and water. […] The results are shown in the following Tables 1 and 2 as the IC50, i.e. the concentration required to inhibit the activity of thromboxane synthetase by 50%. The results using rabbits platelet microsomes are given in Table 1, whilst the results using human platelet microsomes are given in Table 2.

[2] = target: T2, Thromboxane A2 Synthetase (Homo sapiens, UniProt P24557); assay: Inhibition of Thromboxane A2 Synthetase, human platelet microsomes; type: biochemical; details: 1-[14C] arachidonic acid 0.1 mM, 1 minute at 22° C., read-out: IC50, concentration required to inhibit the activity of thromboxane synthetase by 50%
T2 construct: The platelet microsome fraction was separated from rabbit and from human blood; from tissue; host or cells: human blood platelets, microsome fraction
T2 sequence (P24557 1-533): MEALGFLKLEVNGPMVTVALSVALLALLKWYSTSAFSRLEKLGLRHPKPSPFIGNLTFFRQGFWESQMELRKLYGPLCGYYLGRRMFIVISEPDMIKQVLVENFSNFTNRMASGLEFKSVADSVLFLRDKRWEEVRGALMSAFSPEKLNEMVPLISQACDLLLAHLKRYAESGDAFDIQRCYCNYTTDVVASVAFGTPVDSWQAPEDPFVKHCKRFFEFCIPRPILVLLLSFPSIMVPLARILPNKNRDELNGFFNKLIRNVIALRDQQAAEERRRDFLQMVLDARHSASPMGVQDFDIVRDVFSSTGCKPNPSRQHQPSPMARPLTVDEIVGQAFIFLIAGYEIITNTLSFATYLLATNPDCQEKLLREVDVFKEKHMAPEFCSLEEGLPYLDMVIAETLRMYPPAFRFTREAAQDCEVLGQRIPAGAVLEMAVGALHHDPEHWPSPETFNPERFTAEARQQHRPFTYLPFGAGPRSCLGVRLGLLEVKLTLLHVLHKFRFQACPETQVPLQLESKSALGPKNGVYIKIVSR
Procedure: as §1

rabbits = assay: Antithrombotic Activity in Rabbits (sudden death after i.v. arachidonic acid); type: in vivo, male Japanese white rabbits; details: Oryctolagus cuniculus, 1 h; oral, one hour before 1.3 mg/kg arachidonic acid i.v.; Probit's method
Procedure: This test was carried out by a modification of the method of Silver et al. [Science, 183, 1085 (1974)]. The test animals used were male Japanese white rabbits of approximately 3 kg body weight. Each group of rabbits was administered orally the test compound at an appropriate dose and then, one hour after the oral administration, each was given 1.3 mg/kg of arachidonic acid by intravenous injection. The test animals were observed and sudden deaths during the test period were recorded. The ED50 was determined by Probit's method. Unmedicated rabbits were employed as a control, without administering any test compound, but these were all dead within several minutes after the injection of arachidonic acid, as a result of pulmonary thromboembolisms.

| SMILES | IC50 [1] | IC50 [2] | ED50 (rabbits) |
| --- | --- | --- | --- |
| O=C(O)C1CCc2cc(Cn3ccnc3)sc2C1 (stereo not drawn) [Compound A, 4,5,6,7-tetrahydro-2-(1-imidazolyl)methylthianaphthene-6-carboxylic acid hydrochloride] | 26 nM | 30 nM | 0.27 mg/kg |
| O=C(O)C1=Cc2sc(Cn3ccnc3)cc2CC1 [Compound B, sodium 4,5-dihydro-2-(1-imidazolyl)methylthianaphthene-6-carboxylate] | 13 nM | 31 nM | 0.12 mg/kg |
| O=C(O)C1CCc2sc(Cn3ccnc3)cc2C1 (stereo not drawn) [Compound C, 4,5,6,7-tetrahydro-2-(1-imidazolyl)methylthianaphthene-5-carboxylic acid hydrochloride] | 86 nM | – | – |
| Cl.O=C(O)c1ccc(OCCn2ccnc2)cc1 [Dazoxiben, 4-[2-(1-imidazolyl)ethoxy]benzoic acid hydrochloride, reference compound] | 106 nM | – | 1.1 mg/kg |

Reference: US4847272A, “Thianaphthene derivatives” (Sankyo Company Limited, priority 1986, dated 1989)
